Reference: patent US12018016B2, “Aryl sulfonyl (hydroxy) piperidines as CCR6 inhibitors” (CHEMOCENTRYX, INC., priority 2021, dated 2024)

target: T1, human CCR6 (Homo sapiens, UniProt P51684); assay: Migration assay (chemotaxis, ChemoTX); assay type: cell-based; details: hCCR6-transfected Ba/F3 cells in human serum, migration to recombinant human CCL20 10 nM, 37° C. 45 minutes; read-out: Potency (IC50 value in the migration assay)
T1 construct: expressed in transfected cells; host or cells: Ba/F3 cells (mouse pro-B line)
T1 sequence (P51684 1-374): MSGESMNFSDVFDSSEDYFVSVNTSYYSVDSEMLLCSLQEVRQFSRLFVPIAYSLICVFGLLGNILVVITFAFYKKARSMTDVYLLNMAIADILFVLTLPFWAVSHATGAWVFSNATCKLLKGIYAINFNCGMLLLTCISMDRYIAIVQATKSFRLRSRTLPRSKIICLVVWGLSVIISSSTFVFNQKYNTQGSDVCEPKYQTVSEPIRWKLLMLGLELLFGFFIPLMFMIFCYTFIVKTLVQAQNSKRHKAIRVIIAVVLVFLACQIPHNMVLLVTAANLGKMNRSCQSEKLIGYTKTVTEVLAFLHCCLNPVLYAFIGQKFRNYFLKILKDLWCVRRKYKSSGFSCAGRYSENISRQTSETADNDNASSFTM
Description: A chemotaxis assay can be used to determine the efficacy of potential receptor antagonists at blocking the migration mediated through chemokine receptors, such as CCR6. This assay is routinely performed using the ChemoTX® microchamber system with a 5-μm pore-sized polycarbonate membrane. Chemokine receptor-expressing cells are required for such an assay. In this case, Ba/F3 cells (Palacios et al., Nature, 309:126, 1984) transfected with the gene for human CCR6 under control of the CMV promotor were used. To begin such an assay, hCCR6-transfected Ba/F3 cells are first grown for 24 hr in medium supplemented with sodium butyrate, which increases CCR6 transcription via the CMV promotor. The prepared Ba/F3 cells, are collected by centrifugation at 400×g at room temperature, then suspended at 4 million/ml in human serum. The compound being tested is serially diluted from a maximum final concentration of 1 μM (or an equivalent volume of its solvent (DMSO)) and is then added to the cell/serum mixture. Separately, recombinant human CCL20 (MIP-3α/LARC) at its EC50 concentration (10 nM) is placed in the lower wells of the ChemoTX® plate. The 5-μm (pore size) polycarbonate membrane is placed onto the plate, and 20 μL of the cell/compound mixture is transferred onto each well of the membrane. The plates are incubated at 37° C. for 45 minutes, after which the polycarbonate membranes are removed and 5 μl of the DNA-intercalating dye CyQUANT (Invitrogen, Carlsbad, CA) is added to the lower wells. The amount of fluorescence, corresponding to the number of migrated cells, is measured using a Spectrafluor Plus plate reader (TECAN, San Jose, CA).

IC50 [nM] | SMILES
1 to 10 | CN(c1ccc(-c2ccc(S(=O)(=O)N3CC[C@@H](Nc4ccc(C(F)(F)F)cn4)[C@@H](O)C3)cc2)cn1)C1CCC1 [Compound 102]
< 1 | O=S(=O)(c1ccc(-c2cnnc(N3CCOCC3)c2)cc1)N1CC[C@@H](Nc2ccc(C(F)(F)F)cn2)[C@@H](O)C1 [Compound 200]
< 1 | COc1cnc(C)cc1-c1ccc(S(=O)(=O)N2CC[C@@H](Nc3ccc(C(F)(F)F)cn3)[C@@H](O)C2)cc1 [Compound 156]
< 1 | CN(C)c1cc(-c2ccc(S(=O)(=O)N3CC[C@@H](Nc4ccc(C(F)(F)F)cn4)[C@@H](O)C3)cc2)cc(C(N)=O)n1 [Compound 196]
< 1 | O=S(=O)(c1ccc(-c2ccc(N3CC[C@@H](O)C3)nc2)cc1)N1CC[C@@H](Nc2ccc(C(F)(F)F)cn2)[C@@H](O)C1 [Compound 176]
10 to 1000 | NC(=O)c1cc(-c2ccc(S(=O)(=O)N3CC[C@@H](Nc4ncc(C(F)(F)F)cn4)[C@@H](O)C3)cc2)ccn1 [Compound 86, 4-(4-(((3S,4R)-3-hydroxy-4-((5-(trifluoromethyl)pyrimidin-2-yl)amino)piperidin-1-yl)sulfonyl)phenyl)picolinamide]
< 1 | Cc1c(-c2ccc(S(=O)(=O)N3CC[C@@H](Nc4ccc(C(F)(F)F)cn4)[C@@H](O)C3)cc2)ccnc1C(N)=O [Example 6, 4-(4-(((3S,4R)-3-Hydroxy-4-((5-(trifluoromethyl)pyridin-2-yl)amino)piperidin-1-yl)sulfonyl)phenyl)-3-methylpicolinamide]
1 to 10 | N#Cc1cnccc1-c1ccc(S(=O)(=O)N2CC[C@@H](Nc3ccc(C(F)(F)F)cn3)[C@@H](O)C2)cc1 [Compound 149]
< 1 | O=C1NCC[C@H]1Nc1ccc(-c2ccc(S(=O)(=O)N3CC[C@@H](Nc4ccc(C(F)(F)F)cn4)[C@@H](O)C3)cc2)cn1 [Compound 169]
< 1 | Cc1cc(-c2ccc(S(=O)(=O)N3CC[C@@H](Nc4ccc(C(F)(F)F)cn4)[C@@H](O)C3)cc2)cc2cn[nH]c12 [Example 16, (3S,4R)-1-((4-(7-methyl-1H-indazol-5-yl)phenyl)sulfonyl)-4-((5-(trifluoromethyl)pyridin-2-yl)amino)piperidin-3-ol]
< 1 | COC(=O)c1cc(-c2ccc(S(=O)(=O)N3CC[C@@H](Nc4ccc(C(F)(F)F)cn4)[C@@H](O)C3)cc2)ccn1 [Example 39, Methyl 4-(4-(((3S,4R)-3-hydroxy-4-((5-(trifluoromethyl)pyridin-2-yl)amino)piperidin-1-yl)sulfonyl)phenyl)picolinate]
1 to 10 | O=S(=O)(c1ccc(-c2ccnc(CO)c2)cc1)N1CC[C@@H](Nc2ccc(C(F)(F)F)cn2)[C@@H](O)C1 [Example 10, (3S,4R)-1-((4-(2-(hydroxymethyl)pyridin-4-yl)phenyl)sulfonyl)-4-((5-(trifluoromethyl)pyridin-2-yl)amino)piperidin-3-ol]
1 to 10 | CN1CC(N(C)c2ccc(-c3ccc(S(=O)(=O)N4CC[C@@H](Nc5ccc(C(F)(F)F)cn5)[C@@H](O)C4)cc3)cn2)C1 [Compound 98]
10 to 1000 | CN1CCN(c2cc(-c3ccc(S(=O)(=O)N4CC[C@@H](Nc5ccc(C(F)(F)F)cn5)[C@@H](O)C4)cc3)ccn2)CC1 [Compound 113]
< 1 | COc1c(-c2ccc(S(=O)(=O)N3CC[C@@H](Nc4ccc(C(F)(F)F)cn4)[C@@H](O)C3)cc2)ccnc1C(N)=O [Compound 182]
1 to 10 | CN(C)C1CN(c2cc(-c3ccc(S(=O)(=O)N4CC[C@@H](Nc5ccc(C(F)(F)F)cn5)[C@@H](O)C4)cc3)ccn2)C1 [Compound 177]
< 1 | CC(C)(O)C1CN(c2ccc(-c3ccc(S(=O)(=O)N4CC[C@@H](Nc5ccc(C(F)(F)F)cn5)[C@@H](O)C4)cc3)cn2)C1 [Compound 92]

IC50 [nM] | SMILES
< 1 | O=S(=O)(c1ccc(-c2ccc(N3CC4(CNC4)C3)nc2)cc1)N1CC[C@@H](Nc2ccc(C(F)(F)F)cn2)[C@@H](O)C1 [Compound 104]
< 1 | O=S(=O)(c1ccc(-c2cnc3c(O)nccc3c2)cc1)N1CC[C@@H](Nc2ccc(C(F)(F)F)cn2)[C@@H](O)C1 [Compound 190]
1 to 10 | NC(=O)c1cc(-c2ccc(S(=O)(=O)N3CC[C@@H](Nc4ccc(C(F)(F)F)cn4)[C@@H](O)C3)cc2)n[nH]1 [Compound 73, 3-(4-(((3S,4R)-3-hydroxy-4-((5-(trifluoromethyl)pyridin-2-yl)amino)piperidin-1-yl)sulfonyl)phenyl)-1H-pyrazole-5-carboxamide]
< 1 | O=C1NCc2ncc(-c3ccc(S(=O)(=O)N4CC[C@@H](Nc5ccc(C(F)(F)F)cn5)[C@@H](O)C4)cc3)cc21 [Example 48, 3-(4-(((3S,4R)-3-hydroxy-4-((5-(trifluoromethyl)pyridin-2-yl)amino)piperidin-1-yl)sulfonyl)phenyl)-6,7-dihydro-5H-pyrrolo[3,4-b]pyridin-5-one]
1 to 10 | Cc1noc(-c2cc(-c3ccc(S(=O)(=O)N4CC[C@@H](Nc5ccc(C(F)(F)F)cn5)[C@@H](O)C4)cc3)ccn2)n1 [Compound 66, (3S,4R)-1-((4-(2-(3-methyl-1,2,4-oxadiazol-5-yl)pyridin-4-yl)phenyl)sulfonyl)-4-((5-(trifluoromethyl)pyridin-2-yl)amino)piperidin-3-ol]
< 1 | Cc1cc(-c2ccc(S(=O)(=O)N3CC[C@@H](Nc4ccc(C(F)(F)F)cn4)[C@@H](O)C3)cc2)cc2c(C#N)nn(C)c12 [Compound 121]
1 to 10 | COC1CN(c2cc(-c3ccc(S(=O)(=O)N4CC[C@@H](Nc5ccc(C(F)(F)F)cn5)[C@@H](O)C4)cc3)ccn2)C1 [Compound 136]
< 1 | Nc1n[nH]c2ccc(-c3ccc(S(=O)(=O)N4CC[C@@H](Nc5ccc(C(F)(F)F)cn5)[C@@H](O)C4)cc3)cc12 [Example 1, (3S,4R)-1-((4-(3-amino-1H-indazol-5-yl)phenyl)sulfonyl)-4-((5-(trifluoromethyl)pyridin-2-yl)amino)piperidin-3-ol]
< 1 | COc1nccc(-c2ccc(S(=O)(=O)N3CC[C@@H](Nc4ccc(C(F)(F)F)cn4)[C@@H](O)C3)cc2)c1C [Compound 155]
< 1 | Cc1c(-c2ccc(S(=O)(=O)N3CC[C@@H](Nc4ccc(C(F)(F)F)cn4)[C@@H](O)C3)cc2)cnc2[nH]cc(C#N)c12 [Example 56, 5-(4-(((3S,4R)-3-hydroxy-4-((5-(trifluoromethyl)pyridin-2-yl)amino)piperidin-1-yl)sulfonyl)phenyl)-4-methyl-1H-pyrrolo[2,3-b]pyridine-3-carbonitrile]
< 1 | NC(=O)c1ncc(-c2ccc(S(=O)(=O)N3CC[C@@H](Nc4ccc(C(F)(F)F)cn4)[C@@H](O)C3)cc2)s1 [Example 42, 5-(4-(((3S,4R)-3-Hydroxy-4-((5-(trifluoromethyl)pyridin-2-yl)amino)piperidin-1-yl)sulfonyl)phenyl)thiazole-2-carboxamide]
< 1 | COc1nccc(-c2ccc(S(=O)(=O)N3CC[C@@H](Nc4ccc(C(F)(F)F)cn4)[C@@H](O)C3)cc2)c1OC [Compound 150]
< 1 | COc1c(-c2ccc(S(=O)(=O)N3CC[C@@H](Nc4ccc(C(F)(F)F)cn4)[C@@H](O)C3)cc2)cnc2[nH]cc(C#N)c12 [Compound 118]
10 to 1000 | N#Cc1cc(C(F)(F)F)cnc1N[C@@H]1CCN(S(=O)(=O)c2ccc(-c3ccnc(C(N)=O)c3)cc2)C[C@@H]1O [Compound 85, 4-(4-(((3S,4R)-4-((3-cyano-5-(trifluoromethyl)pyridin-2-yl)amino)-3-hydroxypiperidin-1-yl)sulfonyl)phenyl)picolinamide]
1 to 10 | CN(C)C(=O)c1cc(-c2ccc(S(=O)(=O)N3CC[C@@H](Nc4ccc(C(F)(F)F)cn4)[C@@H](O)C3)cc2)ccn1 [Example 40, 4-(4-(((3S,4R)-3-Hydroxy-4-((5-(trifluoromethyl)pyridin-2-yl)amino)piperidin-1-yl)sulfonyl)phenyl)-N,N-dimethylpicolinamide]
< 1 | O=S(=O)(c1ccc(-c2cnnc(Cl)c2)cc1)N1CC[C@@H](Nc2ccc(C(F)(F)F)cn2)[C@@H](O)C1 [Compound 201]
< 1 | O=S(=O)(c1ccc(-c2cnc3[nH]nc(-c4ncc[nH]4)c3c2)cc1)N1CC[C@@H](Nc2ccc(C(F)(F)F)cn2)[C@@H](O)C1 [Compound 191]
